Test results from patent publication US20240041813A1, “VERY-LONG-CHAIN POLYUNSATURATED FATTY ACIDS, ELOVANOID HYDROXYLATED DERIVATIVES, AND METHODS OF USE” (priority 2020, published 2024).
“Also recorded” adds a separate entry of the source.

Experiments:
ACE2 [1] = assay: HCEC challenged with IFNγ: Ace2 gene expression; format: cell-based, human; settings: IFNγ 100 ng/ml
Source text: All experiments with human corneal epithelial cells were approved by the Institutional Review Board of LSUHNO and conducted in accordance with NIH guidelines. HCEC were kept frozen in the laboratory at passage 2544. Cells were maintained in keratinocyte growth (KGM) medium containing the keratinocyte basal medium (KBM) (Lonza: CC-3101) supplemented with bovine pituitary extract (BPE), hEGF, Insulin, Hydrocortisone and Gentamicin Sulfate-Amphotericin (GA-1000) (Lonza, Cat. CC-4131). For all experiments, cells were seeded at 30,000 cells/cm2.
For screening the stimulation of receptor ACE2 by cytokines, the HCEC were cultured with KGM until 50-60% confluence. Then, changed to KBM containing IL-1β, -2, -6 and 8, IFN-α, -ε, and -γ or TNFα at 1, 10 or 100 ng/ml. The cells were harvested after 6 hours and analyze for the gene expression of Ace2. In other experiments, HCEC were stimulated with IFNγ, and thereafter, lipid mediators were added. For the Alexa 594-conjugated RBD binding, IFNγ was used as a cytokine trigger. At 12 hours after cytokine exposure and lipid mediator treatments, […] of labeled RBD was added to the medium. The evaluation of RBD binding was conducted 24 hours after.
Quantitative PCR was performed with the Biomark HD system (Fluidigm, San Francisco, CA, USA). […]

[2] = tested on: receptor-binding domain (RBD) of the SARS-CoV-2 spike; format: cell-based, human
ACE-2 receptor = assay: ACE-2 protein abundance by Jess capillary western in human alveoli in culture; format: cell-based; settings: effect dependent on addition of IL-1b
Source text: The Simple Protein platform Jess allows running a protein mixture in a capillary system that also serves as a probing matrix for the antibodies. This platform obviates the need to transfer the size-separated proteins onto a membrane with the consequent loss of sample. The sample amount that can be run in Jess is several times smaller than that required for Western blots. Therefore, high throughput is facilitated in cell cultures. The antibodies to this protein have been validated in our laboratory.
c.1.b. Protein abundance using Jess technology. The Simple Protein platform Jess allows running a protein mixture in a capillary electrophoretic system as a probing matrix for the antibodies (we refer to western blot as “Jess WB” here). This platform obviates the need to transfer the size-separated proteins onto a membrane with a potential loss of sample. The sample size run in Jess is several times smaller than that for classical WB. (400 ng protein/capillary column vs. 10 or more μg for classical WB). The proteins we assess will include ACE2, Furin, ADAM17, DPP4, TMPRSS2, protein surfactant D, and Cathepsin L. In addition, senescence and SASP proteins will also be analyzed. […]
ACE2 Protein abundance using Jess technology. […] Soluble protein concentration was determined by BCA assay (Thermo Fisher Scientific, Cat. 23225) and 0.4 μg used/reaction. […]

ACE2 [3] = assay: Rat cornea alkali burn: corneal RNA-seq, Ace2 gene expression; format: in vivo; settings: rat cornea after alkali burn; eye drops 3 times/day for 14 days; RNA-seq day 14
Method: The rats were anesthetized by intraperitoneal injection of Ketamine (50-100 mg/kg) plus xylazine (5-10 mg/kg). A 4 mm diameter filter paper soaked in 1 N NaOH was placed on the central cornea of the right eye for 45 seconds, and then the eye was thoroughly washed with […] of saline. After injury, the rats were randomly divided into five treatment groups: vehicle; lipoxin A4 (LXA4) from Cayman Chemical (Ann Arbor, MI, USA); R,R Resolvin D6 isomer (RvD6i), R,R neuroprotection D (NPD1), and elovanoid (ELV)-N32. All lipid solutions were prepared at the final concentration of […] using PBS with the minimal contamination of ethanol by evaporating the ethanol and immediately dissolve the lipids in PBS, then vortex well for 2 min. Topical administration (20 μl) was done 3×/day for 14 days. The experiments were double-blinded with the lipid mediators coded during the whole experiments. At the end of the study, when all data was collected, the code was opened.
Injured corneas (n=5/condition) were harvested and homogenized with TRIzol (Thermo Fisher Scientific) on ice with a glass Dounce homogenizer. RNA sequencing was performed as described^14. Briefly, after mRNA extraction and determination of purity, 8 ng of total RNA was reverse transcribed, and total cDNAs were amplified using ISPCR primer, and the library was made with the Nextera XT DNA library preparation kit (Illumina, San Diego, CA, USA). The libraries were pooled with the same molarity and sequenced using the NextSeq 500/550 High Output Kit v2 (75 cycles, Illumina). After demultiplexing, RNA-seq data were aligned to the Rattus Norvegicus reference genome (.ensembl.org/pub/release-98/fasta/rattus_norvegicus/dna/) using the Subread package v2.0.1 alignment function39. The BAM files for sequencing data alignment were counted using featureCounts function of Subread tool^40 using the macOS Catalina. The raw count data were subjected to differential gene expression analysis using DESeq2 package for R^41 with the vehicle group as reference. The adjusted p-values were named as the false discover rate (FDR).

CC/C=C\CC(O)\C=C/C=C/C=C/C(O)C/C=C\C/C=C\CCCCCCCCCCCCC(=O)O [ELV-N32, (14Z,17Z,20R,21E,23E,25Z,27S,29Z)-20,27-dihydroxydo-triaconta-14,17,21,23,25,29-hexaenoic acid]
IFNγ-triggered Ace2 activation (ACE2 [1]): markedly attenuated; also recorded: suppressed | RBD of the SARS-CoV-2 spike entrance / internalized RBD [2]: diminishes | RBD protein internalization (RBD located below the membrane line) [2]: decrease | expression of the ACE-2 receptor (protein abundance, Jess) (ACE-2 receptor): downregulate | Ace2 gene expression levels (ACE2 [3]): decrease
